Some test systems named below: A498 renal; HCT-116 colon; HCT-15 colon; HOP-62 NSCLC; NCI-H460 lung; OVCAR-5 ovarian; SK-MEL-28 melanoma; SK-OV-3 ovarian; SN12C renal.
What all share (experiment): NCI anticancer screen, dose series, 48 h

Structures are written as SMILES.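 1) Cells in 96-well plates. 2) Compound, 48 h, 5 concentrations. 3) Linear interpolation between surrounding doses. 4) Unreached endpoint = highest concentration. The concentration for full growth arrest is given as TGI.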

Regarding `CC(=O)OCC1OC(Sc2nc(-c3ccc(C)cc3)c(C#N)c(=O)n2C2OC(COC(C)=O)C(OC(C)=O)C(OC(C)=O)C2OC(C)=O)C(OC(C)=O)C(OC(C)=O)C1OC(C)=O` (stereo not given), the TGI in the experiment with A498 renal, in the experiment with HCT-116 colon, with HCT-15 colon, in the experiment with HOP-62 NSCLC, in the experiment on NCI-H460 lung and in the experiment with OVCAR-5 ovarian was greater than 100 µM throughout. In addition, the TGI in the experiment on SK-MEL-28 melanoma, in the experiment with SK-OV-3 ovarian and with SN12C renal was greater than 100 µM throughout.

As to `CCOc1ccccc1N=NC1C(=O)N(C(=O)CC(=O)Nc2ccccc2Cl)N=C1C` (stereo not given), the TGI is greater than 100 µM with A498 renal; greater than 100 µM in the experiment with HCT-116 colon; greater than 100 µM in the experiment on HCT-15 colon; 68.8 µM in the experiment on HOP-62 NSCLC; greater than 100 µM in the experiment with NCI-H460 lung; greater than 100 µM in the experiment on OVCAR-5 ovarian. Moreover, the TGI was greater than 100 µM in the experiment on SK-MEL-28 melanoma, 90.3 µM in the experiment with SK-OV-3 ovarian and greater than 100 µM with SN12C renal.

In the case of `CCOC(=O)c1c2ccccc2n2c(=O)n(C)nnc12`, the TGI in the experiment with A498 renal, with HCT-116 colon, in the experiment on HCT-15 colon, with HOP-62 NSCLC, in the experiment on NCI-H460 lung and in the experiment with OVCAR-5 ovarian was greater than 100 µM throughout. Further, the TGI with SK-MEL-28 melanoma, in the experiment on SK-OV-3 ovarian and in the experiment on SN12C renal was greater than 100 µM throughout.

`Cc1ccc(-c2n[nH]c(CC#N)n2)cc1`: the TGI in the experiment on A498 renal, in the experiment with HCT-116 colon, in the experiment with HCT-15 colon, in the experiment on HOP-62 NSCLC, with NCI-H460 lung and with OVCAR-5 ovarian was greater than 100 µM throughout. For the same compound, the TGI in the experiment with SK-MEL-28 melanoma, in the experiment on SK-OV-3 ovarian and with SN12C renal was greater than 100 µM in each case.

Take `CNC(=O)OC(C)CN1c2ccccc2Sc2ccccc21` (stereo not given): the TGI in the experiment on A498 renal, in the experiment on HCT-116 colon, in the experiment with HCT-15 colon, in the experiment with HOP-62 NSCLC, with NCI-H460 lung and in the experiment on OVCAR-5 ovarian was greater than 100 µM in each case. Also, the TGI in the experiment on SK-MEL-28 melanoma, with SK-OV-3 ovarian and in the experiment on SN12C renal was greater than 100 µM each time.

For `S=C(NNC1=NCCCCN1)Nc1ccccc1`, the TGI was greater than 100 µM in the experiment on A498 renal; 65.8 µM with HCT-116 colon; greater than 100 µM in the experiment on HCT-15 colon; greater than 100 µM in the experiment with HOP-62 NSCLC; greater than 100 µM with NCI-H460 lung; greater than 100 µM in the experiment on OVCAR-5 ovarian. Moreover, the TGI with SK-MEL-28 melanoma, with SK-OV-3 ovarian and with SN12C renal was greater than 100 µM each time.

As for `CCOC(=O)c1c(N2CCOCC2)[nH]c(=O)c(C(c2ccc(N(C)C)cc2)c2c(O)c(C(=O)OCC)c(N3CCOCC3)[nH]c2=O)c1O`, the TGI with A498 renal, in the experiment with HCT-116 colon, in the experiment with HCT-15 colon, in the experiment on HOP-62 NSCLC, in the experiment on NCI-H460 lung and in the experiment on OVCAR-5 ovarian was greater than 100 µM in each case. The TGI with SK-MEL-28 melanoma, in the experiment with SK-OV-3 ovarian and in the experiment on SN12C renal was greater than 100 µM each time.

Turning to `N#C/C(=C\N1CCNC1=S)C(=O)c1ccc2ccccc2c1`, the TGI in the experiment with A498 renal, in the experiment on HCT-116 colon, with HCT-15 colon, in the experiment with HOP-62 NSCLC, in the experiment with NCI-H460 lung and with OVCAR-5 ovarian was greater than 100 µM each time. The TGI in the experiment on SK-MEL-28 melanoma, in the experiment on SK-OV-3 ovarian and in the experiment with SN12C renal was greater than 100 µM each time.

Turning to `COC(=O)c1ccc(/C=N/c2cc(C)nn2-c2ccccc2)cc1`, the TGI with HCT-116 colon is greater than 100 µM; in the experiment with HCT-15 colon, greater than 100 µM; in the experiment with HOP-62 NSCLC, greater than 100 µM; in the experiment with NCI-H460 lung, 37.3 µM; with OVCAR-5 ovarian it was greater than 100 µM; in the experiment with SK-MEL-28 melanoma, greater than 100 µM. Also, the TGI with SK-OV-3 ovarian and in the experiment with SN12C renal was greater than 100 µM throughout.

Consider `O=C(CN1CCOCC1)NC1=Nc2ncccc2C(=O)NN1`, for which the TGI in the experiment with A498 renal, with HCT-116 colon, in the experiment with HCT-15 colon, in the experiment on HOP-62 NSCLC, in the experiment on NCI-H460 lung and in the experiment with OVCAR-5 ovarian was greater than 10 µM each time. The TGI in the experiment on SK-MEL-28 melanoma, in the experiment on SK-OV-3 ovarian and in the experiment on SN12C renal was greater than 10 µM throughout.

On to `Cc1occc1C(=S)Nc1ccc(Cl)c(C(=O)OCC2CC2)c1`, for which the TGI with A498 renal, in the experiment on HCT-116 colon, in the experiment with HCT-15 colon, in the experiment with NCI-H460 lung, with OVCAR-5 ovarian and in the experiment on SK-MEL-28 melanoma was greater than 100 µM each time. Besides, the TGI in the experiment on SK-OV-3 ovarian and in the experiment with SN12C renal was greater than 100 µM throughout.

Consider `C1CSCCSS[C@@H]2CCCCC2SC1` (stereo not given in full), for which the TGI with HCT-116 colon, in the experiment on HCT-15 colon, with HOP-62 NSCLC, with NCI-H460 lung, in the experiment on OVCAR-5 ovarian and in the experiment on SK-MEL-28 melanoma was greater than 100 µM in each case. The TGI in the experiment with SK-OV-3 ovarian and in the experiment on SN12C renal was greater than 100 µM in each case.

For the compound `CCCCCCCCCCCCCCCCCCNc1ccn(C2OC(COP(=O)(O)OCCCCCCCCCCCCCCCC)C(O)C2O)c(=O)n1` (stereo not given), the TGI in the experiment with A498 renal, in the experiment on HCT-116 colon, in the experiment on HCT-15 colon, in the experiment with HOP-62 NSCLC, in the experiment on OVCAR-5 ovarian and with SK-MEL-28 melanoma was greater than 100 µM throughout. Further, the TGI in the experiment on SK-OV-3 ovarian and in the experiment with SN12C renal was greater than 100 µM throughout.

As for `Cc1nc(SCC(=O)Nc2ccccc2)c2sc(=S)n(-c3ccccc3)c2n1`, the TGI with A498 renal, with HCT-116 colon, with HCT-15 colon, in the experiment on HOP-62 NSCLC, with NCI-H460 lung and in the experiment on OVCAR-5 ovarian was greater than 10 µM throughout. Moreover, the TGI in the experiment on SK-MEL-28 melanoma, in the experiment with SK-OV-3 ovarian and with SN12C renal was greater than 10 µM in each case.

Regarding `C=C(Cl)C(Br)(CCl)CCC(Cl)C(C)C` (stereo not given) (tested in a mixture with another compound), the TGI with A498 renal stood at 31.6 µM; with HCT-116 colon, 3.92 µM; in the experiment on HOP-62 NSCLC it was 4.76 µM; with NCI-H460 lung it was 3.42 µM; with OVCAR-5 ovarian it was 6.69 µM; in the experiment on SK-MEL-28 melanoma, 3.21 µM. Moreover, the TGI in the experiment with SK-OV-3 ovarian amounted to 8.85 µM; with SN12C renal, 3.08 µM.
